# Assay results as given in US5620997A, “Isothiazolones” (Warner-Lambert Company, priority 1995, dated 1997).
# Target: T1, rabbit reticulocyte 15-LO (Oryctolagus cuniculus, UniProt P12530)
# T1 construct: rabbit reticulocyte 15-LO; from tissue; host or cells: rabbit reticulocytes
# T1 sequence (P12530 1-663): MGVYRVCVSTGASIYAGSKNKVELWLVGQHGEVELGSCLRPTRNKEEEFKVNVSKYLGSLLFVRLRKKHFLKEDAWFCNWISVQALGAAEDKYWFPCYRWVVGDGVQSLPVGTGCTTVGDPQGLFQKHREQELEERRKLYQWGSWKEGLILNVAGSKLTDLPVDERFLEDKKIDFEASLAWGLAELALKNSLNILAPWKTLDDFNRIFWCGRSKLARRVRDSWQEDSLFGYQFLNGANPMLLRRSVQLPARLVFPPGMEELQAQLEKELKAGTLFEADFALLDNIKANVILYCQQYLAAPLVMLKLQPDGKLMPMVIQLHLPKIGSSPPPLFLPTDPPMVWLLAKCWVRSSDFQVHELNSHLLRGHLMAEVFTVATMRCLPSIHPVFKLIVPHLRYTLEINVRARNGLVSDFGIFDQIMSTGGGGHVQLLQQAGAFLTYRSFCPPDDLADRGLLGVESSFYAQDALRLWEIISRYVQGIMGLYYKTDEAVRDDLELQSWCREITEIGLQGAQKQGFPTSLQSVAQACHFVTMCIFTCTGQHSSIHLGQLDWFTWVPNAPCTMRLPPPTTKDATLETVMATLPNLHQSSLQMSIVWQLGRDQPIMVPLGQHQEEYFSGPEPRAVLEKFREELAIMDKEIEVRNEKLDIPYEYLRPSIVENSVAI
# Experiment: Colorimetric Assay of 15-LO Inhibition
# Type: biochemical
# Conditions: colorimetric method
# Description: The isothiazolones of Formula I are also effective for treating inflammation and atherosclerosis. A characteristic feature of atherosclerosis is the accumulation of cholesteryl ester engorged from foam cells. Foam cells are derived from circulating monocytes which invade artery walls in response to hypercholesterolemia, and mature into tissue macrophages. […] Specifically, representative compounds were evaluated by the methods described by Auerbach, et al., Analytical Biochemistry, 1992;201:375-380. Two in vitro assays were utilized, both utilizing rabbit reticulocyte 15-LO, and linoleic acid as substrate, to enzymatically produce a peroxide oxidation product known as 13(S)-HPODE. N-Benzoyl leucomethylene blue was utilized as a colorimetric reagent for detection and quantification of the peroxide formation. Also, HPLC was utilized to quantify the oxidation following incubation at 4° C. for 10 minutes.
# Table 3 gives the concentration of compound required to inhibit 50% of the activity of 15-LO (IC50) when measured by the HPLC method of Auerbach, et al. Table 4 gives the percent inhibition of 15-LO activity when evaluated by the colorimetric method.
row,inhibition at 10 µM [%],Compound
1,65,COc1ccc(-c2ccc3c(=O)n(CCN(C)C)sc3n2)cc1OC [Example 108]
2,22,CN(C)CCn1sc2nc3ccccc3cc2c1=O [Example 109]
